For 5 compounds, MIC results are on record in ChEMBL document CHEMBL5215010, “Dothideomins A-D, Antibacterial Polycyclic Bisanthraquinones from the Endophytic Fungus Dothideomycetes sp. BMC-101” (2022).

As a reminder, the MIC is the least concentration at which growth counts as inhibited.

Holding throughout (format): functional
Test [1] has as its system Staphylococcus aureus. Put plainly: Antibacterial activity against Staphylococcus aureus assessed as bacterial growth inhibition by CLSI protocol based broth microdilution assay. A general note: Broth dilution looks for growth in wells or tubes with falling amounts of substance.
Test [2] concerns Bacillus subtilis. Put plainly: Antibacterial activity against Bacillus subtilis assessed as bacterial growth inhibition by CLSI protocol based broth microdilution assay.
Test [3] concerns Mycolicibacterium phlei. Put plainly: Antibacterial activity against Mycobacterium phlei assessed as bacterial growth inhibition by CLSI protocol based broth microdilution assay.
The test system of test [4] is Staphylococcus epidermidis. Put plainly: Antibacterial activity against Staphylococcus epidermidis assessed as bacterial growth inhibition by CLSI protocol based broth microdilution assay.

Molecules are shown by their SMILES. Converted amounts (≈) assume the structure as drawn.

Consider `Cc1cc(O)c2c(c1)C(=O)C1=C(C2=O)[C@H]2C(O)=C3C(=O)c4c(O)cc(C)cc4C(=O)[C@@]34CC(=O)C1C4[C@H]2O` (stereo not given in full), for which the MIC in test [1], in test [2], in test [3] and in test [4] was 0.4 µg/mL (≈ 0.781 µM) each time.

Turning to `Cc1cc(O)c2c(c1)C(=O)[C@]13C[C@H](O)C4C1[C@@H](O)[C@H](C(O)=C3C2=O)[C@@]12O[C@@]41C(=O)c1cc(C)cc(O)c1C2=O` (stereo not given in full), the MIC in test [1] was determined as 0.4 µg/mL (≈ 0.754 µM); in test [2] it was 0.4 µg/mL (≈ 0.754 µM); in test [3] it was 0.8 µg/mL (≈ 1.51 µM); in test [4], 0.4 µg/mL (≈ 0.754 µM).

As to `Cc1cc(O)c2c(c1)C(=O)C1=C(C2=O)[C@H]2C(O)=C3C(=O)c4c(O)cc(C)cc4C(=O)[C@@]34C[C@H](O)C1C4[C@H]2O` (stereo not given in full), the MIC in test [1], in test [2], in test [3] and in test [4] was 1.6 µg/mL (≈ 3.11 µM) throughout.

Turning to `Cc1cc(O)c2c(c1)C(=O)[C@]13C[C@H](O)C4C1[C@@H](O)[C@H](C(O)=C3C2=O)[C@@]12O[C@@]41C(=O)c1cc(C)cc(O)c1[C@H]2O` (stereo not given in full), the MIC in test [1] came out at 6.5 µg/mL (≈ 12.2 µM); in test [2], 6.5 µg/mL (≈ 12.2 µM); in test [3], 6.5 µg/mL (≈ 12.2 µM); in test [4] it was 3.3 µg/mL (≈ 6.2 µM).

On to `O=C(N[C@H](CO)[C@H](O)c1ccc([N+](=O)[O-])cc1)C(Cl)Cl` [CHLORAMPHENICOL], for which the MIC in test [1] is 0.3 µg/mL (≈ 0.928 µM); in test [2] it was 0.8 µg/mL (≈ 2.48 µM); in test [3], 1.3 µg/mL (≈ 4.02 µM); in test [4], 1.5 µg/mL (≈ 4.64 µM).
